{"source": "paper PMC6960228", "about": "“Ethoxysanguinarine, a Novel Direct Activator of AMP-Activated Protein Kinase, Induces Autophagy and Exhibits Therapeutic Potential in Breast Cancer Cells” (Frontiers in Pharmacology, 2020)", "key": {"[1]": {"test_system": "MCF-7, MDA-MB-231, and MDA-MB-436 cells", "assay": "Trypan blue exclusion assay", "type": "cell-based, human", "conditions": "dose- and time-dependent", "protocol": "Cells were seeded into 96-well plate and pre-cultured for 24 h, then treated with Eth for 24. Cell cytotoxicity was determined by MTT assay. The absorbance was measured at 490 nm by automated microplated reader (BioTek Instruments, Inc., Winooski, VT, USA), and the cell death rate was calculated as followed: inhibition rate (%) = (average A490 of the control group − average A490 of the experimental group)/(average A490 of the control group − average A490 of the blank group) × 100%. Cell viability was estimated by trypan blue dye exclusion."}, "[2]": {"test_system": "ACC, Glut1, Glut3, and Glut4 in BC cells", "assay": "Western blot of energy metabolism proteins", "type": "cell-based, human", "protocol": "Cells were lysed in radioimmunoprecipitation assay buffer containing 50 mM Tris, pH 8.0, 150 mM NaCl, 0.1% SDS, 0.5% sodium deoxycholate, 1% NP-40, 1 mM DTT, 1 mM NaF, 1 mM sodium orthovanadate, 1 mM phenylmethylsulfonyl fluoride (PMSF; Sigma-Aldrich; Merck KGaA), and 1% protease inhibitors cocktail (EMD Millipore, Billerica, MA, USA). Protein concentration was determined using the Bradford method. Equal amounts of sample (25 µg) were separated by SDS-PAGE (8–12% gels). Electrophoresed proteins were then transferred onto polyvinylidene fluoride membranes (EMD Millipore, Billerica, MA, USA). The membranes were blocked with 5% skimmed milk in Tris-buffered saline at room temperature for 1 h. Following blocking, membranes were incubated overnight at 4°C with primary antibodies and then rinsed with Tris-buffered saline with Tween 20. […]"}}}
{"molecule": "CCOC1c2c(ccc3c2OCO3)-c2ccc3cc4c(cc3c2N1C)OCO4", "note": "(stereo not drawn) [Eth, Ethoxysanguinarine]", "values": [{"measurement": "viable cells", "setting": "[1]", "result": "rapidly reduced viable"}, {"measurement": "expression and activation of ACC", "setting": "[2]", "result": "no significant effect"}, {"measurement": "expression of Glut1, Glut3, and Glut4", "setting": "[2]; MCF-7 or MDA-MB-231 cells, 24 h", "result": "downregulated"}]}
